Reference: US9682925B2, “Cyclopropaneamine compound” (TAKEDA PHARMACEUTICAL COMPANY LIMITED, priority 2011, dated 2017)
pIC50: −log10 of the molar value. Structures can show the parent of a compound that is named as a salt.

Tests used:
Format in all cases: biochemical
human LSD1(171-852) = target: T1, human LSD1(171-852) (Homo sapiens, UniProt O60341); test: Measurement of LSD1 inhibitory activity (time-resolved fluorescence, biotin-histone H3 mono methylated K4 peptide); conditions: read-out: LSD1 IC50 value
T1 construct: to give hLSD1(171-852) purified product; made in house; host or cells: Escherichia coli C43(DE3) pLysS

MAO-A = target: T2, MAO-A (Homo sapiens, UniProt P21397); test: Measurement of MAO-A inhibitory activity (MAO-Glo Assay)
T2 construct: purchased Sigma-Aldrich Co. LLC
T2 sequence (P21397 1-527): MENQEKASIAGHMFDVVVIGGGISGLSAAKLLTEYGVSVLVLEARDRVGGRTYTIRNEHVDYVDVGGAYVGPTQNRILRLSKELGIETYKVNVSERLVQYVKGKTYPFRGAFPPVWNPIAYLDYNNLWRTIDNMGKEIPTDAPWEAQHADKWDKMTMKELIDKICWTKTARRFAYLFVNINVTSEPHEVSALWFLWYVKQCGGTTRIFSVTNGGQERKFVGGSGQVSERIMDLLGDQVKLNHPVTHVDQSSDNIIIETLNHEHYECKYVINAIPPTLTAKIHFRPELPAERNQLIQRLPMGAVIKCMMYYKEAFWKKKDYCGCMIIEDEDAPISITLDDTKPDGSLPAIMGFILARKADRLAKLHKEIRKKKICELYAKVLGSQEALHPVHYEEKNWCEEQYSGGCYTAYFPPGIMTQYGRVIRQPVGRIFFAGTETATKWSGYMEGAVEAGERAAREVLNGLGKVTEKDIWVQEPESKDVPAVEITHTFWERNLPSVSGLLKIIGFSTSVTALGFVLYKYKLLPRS
How it was run: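 Luminescent MAO-Glo read-out: % inhibition computed from counts relative to enzyme-only control and enzyme-free blank. Compound and 400 ng MAO-A in HEPES pH 7.5 with 5% glycerol stood 10 min at room temperature before MAO substrate (160 μM stock) started a 60 min reaction.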

MAO-B = target: T3, MAO-B (Homo sapiens, UniProt P27338); test: Measurement of MAO-B inhibitory activity (MAO-Glo Assay)
T3 construct: purchased Sigma-Aldrich Co. LLC
T3 sequence (P27338 1-520): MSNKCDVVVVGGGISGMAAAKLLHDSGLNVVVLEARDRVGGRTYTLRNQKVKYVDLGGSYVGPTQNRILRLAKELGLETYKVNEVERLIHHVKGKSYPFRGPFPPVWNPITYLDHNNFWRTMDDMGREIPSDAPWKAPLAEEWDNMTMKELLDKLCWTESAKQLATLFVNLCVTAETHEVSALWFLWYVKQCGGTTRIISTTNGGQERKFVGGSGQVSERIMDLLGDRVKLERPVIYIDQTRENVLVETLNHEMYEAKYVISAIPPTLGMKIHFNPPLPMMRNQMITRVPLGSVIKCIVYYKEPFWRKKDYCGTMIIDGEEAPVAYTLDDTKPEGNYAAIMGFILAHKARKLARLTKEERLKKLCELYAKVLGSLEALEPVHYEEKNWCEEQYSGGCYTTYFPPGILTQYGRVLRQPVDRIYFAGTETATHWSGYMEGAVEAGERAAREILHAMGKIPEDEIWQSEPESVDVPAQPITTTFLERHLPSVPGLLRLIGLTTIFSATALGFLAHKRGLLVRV
How it was run: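 Percent inhibition was calculated from luciferin-based luminescence, corrected with a blank lacking enzyme and a control lacking compound. The reaction ran 60 min at room temperature after adding MAO substrate (16 µM as added). This followed a 10 min compound–enzyme preincubation in HEPES pH 7.5 buffer.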

pIC50 (human LSD1(171-852))	pIC50 (MAO-A)	pIC50 (MAO-B)	Structure (SMILES)
> 7.00	< 5.00	< 5.00	CS(=O)(=O)c1ccc(C(=O)Nc2ccc([C@@H]3C[C@H]3NCC3CC3)cc2)cc1 (relative stereo) [Example 87, N-(4-{trans-2-[(cyclopropylmethyl)amino]cyclopropyl}-phenyl)-4-(methylsulfonyl)-benzamide]
> 7.00	< 5.00	< 5.00	CN(C)c1ccc(C(=O)Nc2ccc([C@@H]3C[C@H]3NCC3CC3)cc2)cc1 (relative stereo) [Example 84, N-(4-{trans-2-[(cyclopropylmethyl)amino]cyclopropyl}-phenyl)-4-(dimethylamino)-benzamide]
> 7.00	< 5.00	< 5.00	CC(C)N1CCC(N[C@@H]2C[C@H]2c2ccc(NC(=O)c3cccc(C(F)(F)F)c3)cc2)CC1 (relative stereo) [Example 112, N-[4-(trans-2-{[1-(1-methylethyl)piperidin-4-yl]amino}cyclopropyl)phenyl]-3-(trifluoromethyl)benzamide dihydrochloride]
> 7.00	< 5.00	< 5.00	CN1CCC(N[C@@H]2C[C@H]2c2ccc(NC(=O)c3ccc(-c4ccccc4)cc3)cc2)CC1 (relative stereo) [Example 50, N-(4-{trans-2-[(1-methylpiperidin-4-yl)amino]cyclo-propyl}phenyl)-biphenyl-4-carboxamide]
> 7.00	< 5.00	< 5.00	CN(C)c1cccc(C(=O)Nc2ccc([C@@H]3C[C@H]3NCC3CC3)cc2)c1 (relative stereo) [Example 83, N-(4-{trans-2-[(cyclopropylmethyl)amino]cyclopropyl}phenyl)-3-(dimethylamino)benzamide bis(trifluoroacetate)]
6.55	< 5.00	< 5.00	CC(C)(C)c1cccc(C(=O)Nc2ccc([C@@H]3C[C@H]3NCc3ccccc3)cc2)c1 (relative stereo) [Example 9, N-{4-[trans-2-(benzylamino)cyclopropyl]phenyl}-3-tert-butylbenzamide]
> 7.00	< 5.00	< 5.00	Cn1cc(C(=O)Nc2ccc([C@@H]3C[C@H]3NCC3CC3)cc2)c(C(F)(F)F)n1 (relative stereo) [Example 158, N-(4-{trans-2-[(cyclopropylmethyl)amino]cyclopropyl}phenyl)-1-methyl-3-(trifluoromethyl)-1H-pyrazole-4-carboxamide hydrochloride]
> 7.00	< 5.00	< 5.00	CC(=O)N1CCC(N[C@@H]2C[C@H]2c2ccc(NC(=O)c3ccc(-c4ccccc4)cc3)cc2)CC1 (relative stereo) [Example 62, N-(4-{trans-2-[(1-acetylpiperidin-4-yl)amino]cyclopropyl}phenyl)biphenyl-4-carboxamide hydrochloride]
> 7.00	5.07	5.02	O=C(Nc1ccc([C@@H]2C[C@H]2NCC2CC2)cc1)c1cccc(C(F)(F)F)c1 (relative stereo) [Example 65, N-(4-{trans-2-[(cyclopropylmethyl)amino]cyclopropyl}phenyl)-3-(trifluoromethyl)benzamide hydrochloride]
> 7.00	5.66	5.48	O=C(Nc1ccc([C@@H]2C[C@H]2NC2CCOCC2)cc1)c1ccc(-c2ccccc2)cc1 (relative stereo) [Example 61, N-{4-[trans-2-(tetrahydro-2H-pyran-4-ylamino)cyclopropyl]phenyl}biphenyl-4-carboxamide hydrochloride]
> 7.00	5.24	< 5.00	O=C(Nc1ccc([C@@H]2C[C@H]2NCc2ccccc2)cc1)c1cccc(C(F)(F)F)c1 (relative stereo) [Example 8, N-{4-[trans-2-(benzylamino)cyclopropyl]phenyl}-3-(trifluoromethyl)benzamide]

Second part, the molecule before the results:

Structure (SMILES)	pIC50 (human LSD1(171-852))	pIC50 (MAO-A)	pIC50 (MAO-B)
O=C(Nc1ccc([C@@H]2C[C@H]2NCc2ccccc2)cc1)c1cccc(CCc2ccccc2)c1 (relative stereo) [Example 34, N-{4-[trans-2-(benzylamino)cyclopropyl]phenyl}-3-(2-phenylethyl)benzamide]	6.72	< 5.00	< 5.00
CS(=O)(=O)Nc1ccc(C(=O)Nc2ccc([C@@H]3C[C@H]3NCC3CC3)cc2)cc1 (relative stereo) [Example 135, N-(4-{trans-2-[(cyclopropylmethyl)amino]cyclopropyl}phenyl)-4-[(methylsulfonyl)amino]benzamide hydrochloride]	7.00	< 5.00	< 5.00
Cc1cccc(C(=O)Nc2ccc([C@@H]3C[C@H]3NCc3ccccc3)cc2)c1 (relative stereo) [Example 7, N-{4-[trans-2-(benzylamino)cyclopropyl]phenyl}-3-methylbenzamide]	> 7.00	5.25	< 5.00
CCCCCCCCN[C@@H]1C[C@H]1c1ccc(NC(=O)c2cccc(Br)c2)cc1 (relative stereo) [Example 4, 3-bromo-N-{4-[trans-2-(octylamino)cyclopropyl]phenyl}benzamide]	6.62	< 5.00	< 5.00
O=C1c2ccccc2CN1c1ccc([C@@H]2C[C@H]2NCC2CC2)cc1 (relative stereo) [Example 144, 2-(4-{trans-2-[(cyclopropylmethyl)amino]cyclopropyl}phenyl)isoindolin-1-one hydrochloride]	6.70	< 5.00	< 5.00
O=C(Nc1ccc([C@@H]2C[C@H]2NCC2CC2)cc1)c1ccc(C2CCCCC2)cc1 (relative stereo) [Example 89, 4-cyclohexyl-N-(4-{trans-2-[(cyclopropylmethyl)amino]cyclopropyl}-phenyl)benzamide]	7.00	< 5.00	< 5.00
O=C(Nc1ccc([C@@H]2C[C@H]2NCc2ccccc2)cc1)c1ccc(-c2ccccc2)cc1 (relative stereo) [Example 35, N-{4-[trans-2-(benzylamino)cyclopropyl]phenyl}biphenyl-4-carboxamide]	6.89	5.89	< 5.00
O=C(Nc1ccc([C@@H]2C[C@H]2NCc2ccccc2)cc1)c1cccc(-c2ccccc2)c1 (relative stereo) [Example 36, N-{4-[trans-2-(benzylamino)cyclopropyl]phenyl}biphenyl-3-carboxamide]	> 7.00	5.34	< 5.00
O=C(Nc1ccc([C@@H]2C[C@H]2NCc2c[nH]cn2)cc1)c1ccc(-c2ccccc2)cc1 (relative stereo) [Example 66, N-(4-{trans-2-[(1H-imidazol-4-ylmethyl)amino]cyclopropyl}phenyl)biphenyl-4-carboxamide dihydrochloride]	> 7.00	< 5.00	< 5.00
O=C(Nc1ccc([C@@H]2C[C@H]2NCc2ccccc2)cc1)c1cccc(N2CCCCC2)c1 (relative stereo) [Example 32, N-{4-[trans-2-(benzylamino)cyclopropyl]phenyl}-3-piperidin-1-ylbenzamide]	> 7.00	< 5.00	< 5.00
O=C(Nc1ccc([C@@H]2C[C@H]2NCC2CC2)cc1)c1ccc(-c2nnn[nH]2)cc1 (relative stereo) [Example 102, N-(4-{trans-2-[(cyclopropylmethyl)-amino]cyclopropyl}-phenyl)-4-(1H-tetrazol-5-yl)benzamide]	6.70	< 5.00	< 5.00
O=C(Nc1ccc([C@@H]2C[C@H]2NC2CCN(Cc3ccccc3)CC2)cc1)c1ccc(-c2ccccc2)cc1 (relative stereo) [Example 51, N-(4-{trans-2-[(1-benzylpiperidin-4-yl)amino]cyclo-propyl}phenyl)-biphenyl-4-carboxamide]	7.00	< 5.00	< 5.00
